BindingDB's records for doi:10.1016/j.chembiol.2005.11.011 (Cyclacel, 2006)

Target: Cyclin-dependent kinase 2 (Homo sapiens, UniProt P24941)
Assay: In Vitro Inhibition
Text: In vitro inhibition assay using human recombinant CDK2 and human recombinant cyclin A2.

IC50: 250 nM
SMILES: O=[N+]([O-])c1cccc(Nc2nccc(-c3cccc(Cn4cncn4)c3)n2)c1 [N-(3-nitrophenyl)-4-[3-(1H-1,2,4-triazol-1-ylmethyl)phenyl]pyrimidin-2-amine, 6]
